Assay results as given in patent US6403090B1, “Peptides which mimic candida carbohydrate epitopes and their use in a vaccine” (The Research and Development Institute Inc., priority 1994, dated 2002).
Where a SMILES comes first, the peptide text is derived from it. [ ]: non-standard residue; d: D form. Nle = CCCC[C@H](N)C(=O)O

How the values were obtained:
g3p in COS-1 cells = experiment: g3p expression in transfected COS-1 cells by IFA; assay type: cell-based; conditions: COS-1 cells treated with protease inhibitor
Protocol: To achieve greater levels of expression, the plasmids were transfected into COS-1 cells, which are capable of replicating the plasmids and generating exceptional amounts of the encoded proteins. […] Several different transfection methods and variations were tested to increase the proportion of cells that would express detectable g3p. […] Therefore, g3p is likely being broken down rapidly by the mammalian cells.
This possibility was further tested by treating the COS-1 cells with a protease inhibitor (ALLN) that can inhibit proteases in the endoplasmic reticulum of living cells. […] The antigen was detected in the Golgi apparatus as well as in the endoplasmic reticulum. Less of the truncated version of g3p (without a membrane anchor) was detectable; whether any of it is secreted from the expressing cells under these conditions remains to be determined.

[1] = tested on: binding of C. albicans hydrophilic yeast cells to splenic marginal zone macrophages; experiment: Ex vivo adherence assay on mouse splenic tissue; conditions: purified epitope of mAb 10G
Text: Tissue adherence characteristics of C. albicans and adhesin isolation. By use of an ex vivo adherence assay, the adherence characteristics of hydrophilic and hydrophobic yeast cells to mouse splenic and lymph node tissue was examined (Cutler, J. E., et al., 1990, Characteristics of Candida albicans adherence to mouse tissues. Infec. Immun. 58:1902-1908); Han, Y., et al. 1993. Binding of C. albicans yeast cells to mouse popliteal lymph node tissue is mediated by macrophages. Infect. Immun. 61:3244-3249; and Hazen, K. C., et al. 1991. Differential adherence between hydrophobic and hydrophilic yeast cells of C. albicans. Infect. Immun. 59:907-91212).
C. neoformans strain 602 log and stationary phase cells were removed form the various growth conditions and tested for adherence to splenic tissue in the ex vivo assay. […]
However, 2ME extract will not inhibit yeast adherence if the extract is treated with antiserum from vaccinated animals. […] 100 μl of each was overlaid onto splenic cryosections for 15 min at 4° C., the mixtures were decanted, 100 μl of a suspension of yeast cells (1.5×10^7/0.1 ml DMEM) was added to each tissue section for 15 min at 4° C., and yeast cell binding was quantified as previously described (Riesselman, M. H. et al. 1991. Improvements and important considerations of an ex vivo assay to study interactions of C. albicans with splenic tissue., J. Immunol. Methods 1450:153-160). […]

[2] = molecular target: Monoclonal Antibody B6.1 (930610), ATCC Accession No. HB11925
MAb B6.1 [3] = experiment: Dot blot inhibition of MAb B6.1 by synthetic peptide at pH 8.6; assay type: binding, mouse; conditions: up to 200 μM peptide
Text: Because pH below 5 or above 8.5 is required to solubilize PS76p, the reactivity of MAb B6.1 at low and high pH was investigated. […] Although MAb B6.1 is functional at these pH conditions, the PS76p may or may not retain proper epitope conformation at this pH and may require tethering to a carrier molecule to enable inhibition studies to be done at pH 7.

C. albicans 2ME extract = experiment: Antibody response of mice immunized with peptide mimotope preparations; assay type: in vivo, BALB/c mice; conditions: for Class of the antibody response against 2ME extract: γ-chain or μ-chain specific secondary antibodies
Protocol: Administration of peptide intraperitoneally (i.p.) BALB/c mice (4 animals) were immunized i.p. with PS76p (1 mg per dose) mixed into sterile PBS (degassed and nitrogen sparged) with and without RS-700MPL+TDM Ribi Adjuvant (Ribi Immunochem, Hamilton, Mont.). The insolubility of PS76p in PBS, as noted above, produced a particulate inoculum which was sonicated briefly (10 sec, ice cold) to minimize particulate size prior to injection. Animals were boosted with 1 mg PS76p at day 21 and serum samples were obtained on day 28. Sera from all four mice agglutinated hydrophilic C. albicans cells and agglutinated 2-ME extract-latex beads. The anti-Candida response appeared somewhat stronger in the animals receiving peptide with adjuvant.
Reactivity of the anti-PS76p sera from the mice was also tested in dot blot assays against 2-ME extract (1 μg/dot). Immune sera were diluted 1:10 in 5% BLOTTO-phage buffer, incubated 12-16 h with preblocked dot blots, washed and incubated with peroxidase-conjugated goat anti-mouse Ig (G,M, and A). […] Additional dot blots were incubated in primary antibodies as above and reacted with either γ-chain specific or μ-chain specific secondary antibodies.
Animals were administered booster immunizations of PS76p every two weeks and serum samples obtained 1 week after each. An ELISA assay was utilized to determine any change in titer for the anti-PS76p antiserum samples. Briefly, 2ME extract-coated wells or wells coated with an irrelevant carbohydrate were blocked in 5% BLOTTO/phage buffer and incubated with dilutions of either pre-immune sera or various anti-PS76p antiserum samples. Subsequent steps with the secondary antibody and substrate solution were as described above for ELISA. All of the anti-PS76p serum samples reacted with 2ME extract and recognized the peptide-carrier protein conjugates, but not the irrelevant carbohydrate or the carrier proteins alone. […] Other BALB/C mice (2 animals) were immunized with PS76p plus Ribi adjuvant (1 mg/dose subcutaneous inoculation (s.c.), and reached higher anti-PS76 antibody titers (e.g. 160 by ELISA) after the second boost. ELISA tests performed with class-specific secondary antibody reagents confirm that the response is primarily IgM. […]

Solubility tests = assay type: physicochemical
Text: Synthetic peptide inhibits binding of MAb B6.1 to its' carbohydrate epitope. […] We obtained a synthetic 13-mer peptide (Bio-Synthesis, Lewisville, Tex.), YRQFVTGFWGPPC, (SEQ ID NO:7) which was designed to include the PS76 nonapeptide sequence (designated as PS76p) plus the 3 amino acid pIII tether (GPP) and an added cysteine (C) to facilitate peptide coupling to a carrier protein, such as keyhole limpet hemocyanin (KLH). Due to the high number of hydrophobic amino acids in the synthesized PS76p, solubility tests were run to determine conditions for dot blot inhibition studies. The PS76p was soluble in trifluoroacetic acid, dimethylsulfoxide, 20% v/v acetic acid, citrate and acetate buffers below pH 5.4, borate buffer above pH 8.5, but not soluble in deionized water, phosphate buffered saline (PBS), 15% v/v dimethylformamide, chloroform, or methanol.

MAb B6.1 [4] = experiment: ELISA: peptide-carrier conjugates with MAb B6.1 at physiologic pH; assay type: binding, mouse; conditions: OD 490 nm
Protocol: (§1) Samples of the final conjugates, PS76p-MBS-KLH (i.e. PS76-KLH) and PS76p-GMBS-OVA (i.e. PS76-OVA) were tested by enzyme linked immunosorbent assay (ELISA) for reactivity with MAb B6.1 at physiologic pH. Microtiter plate wells were coated with the peptide conjugates or the carrier proteins alone, washed (Tris buffered saline with 0.1% Tween-20), and blocked in 5% BLOTTO/phage buffer. Wells were washed and incubated with MAb B6.1, an irrelevant IgM (MAb S10) or block only, washed, and a horseradish peroxidase-conjugated goat anti-mouse Ig (G and M) was added. Wells were washed and an o-phenylenediamine substrate solution was added, incubated 10 min and color development stopped with 10% sulfuric acid, and the plate read at OD=490 nm. […] The PS76-KLH conjugate was utilized in an ELISA-based inhibition assay as follows. Microtiter plate wells were coated with PS76-KLH and blocked as above. MAb B6.1 ([…] in block) was pre-incubated with or without either 50 or 500 μg of acid-hydrolyzed 2ME extract per ml of solution, and then added to the conjugate coated well.

MAb S10 = experiment: ELISA: peptide-carrier conjugates with irrelevant IgM MAb S10; assay type: binding; conditions: physiologic pH
Protocol: as §1

## CCCC[C@@H](C=O)NC(=O)[C@H](CC(C)C)NC(=O)[C@H](CC(C)C)NC(C)=O [ALLN] (Ac-Leu-Leu-[Nle]-aldehyde)
g3p in COS-1 cells
  Frequency and amount of g3p detectable by IFA: significant increase

## OC[C@H]1O[C@@H](O[C@@H]2[C@H](O[C@@H]3[C@H](O[C@@H]4C(O)O[C@H](CO)[C@@H](O)[C@@H]4O)O[C@H](CO)[C@@H](O)[C@@H]3O)O[C@H](CO)[C@@H](O)[C@@H]2O)[C@@H](O)[C@@H](O)[C@@H]1O (stereo partly drawn) [tetramannose, β-1,2-linked straight-chained tetramannose]
[1]
  Binding of yeast cells to the splenic marginal zone: blocks binding

## M13KBst, the parent vector (parent phage) for the PDPL (from UniProt P69168 19-424)
[2]
  absorbance (OD490): 0.021 OD490
Irrelevant IgM MAb S10
  absorbance (OD490): 0.032 OD490

## YRQFVTGFWGPPC [PS76p, synthetic 13-mer: PS76 nonapeptide plus GPP tether and added cysteine]
MAb B6.1 [3]
  Inhibition of MAb B6.1 binding to 2-ME extract: negative
C. albicans 2ME extract; 1 mg i.p. immunizations, boosters every two weeks
  ELISA titer against 2ME extract: ~40
C. albicans 2ME extract; 1 mg per dose i.p. with and without Ribi adjuvant, boost day 21, serum day 28, all four mice
  Agglutination of hydrophilic C. albicans cells and 2-ME extract-latex beads by sera of immunized mice: agglutinated
C. albicans 2ME extract; 1 mg/dose s.c. plus Ribi adjuvant, after the second boost
  ELISA anti-PS76 antibody titer: 160
C. albicans 2ME extract; sera 1:10, 1 μg/dot, all four immunized mice
  Dot blot reactivity of immune sera to 2-ME extract: showed reactivity
C. albicans 2ME extract
  Class of the antibody response against 2ME extract: primarily IgM
Solubility tests; deionized water, PBS, 15% v/v dimethylformamide, chloroform, methanol
  Solubility: not soluble
Solubility tests; trifluoroacetic acid, dimethylsulfoxide, 20% v/v acetic acid, citrate and acetate buffers below pH 5.4, borate buffer above pH 8.5
  Solubility: soluble

B1: PS76-OVA: PS76p conjugated to ovalbumin via GMBS (conjugate)
peptide: YRQFVTGFWGPPC
chain: GSIGAASMEFCFDVFKELKVHHANENIFYCPIAIMSALAMVYLGAKDSTRTQINKVVRFDKLPGFGDSIEAQCGTSVNVHSSLRDILNQITKPNDVYSFSLASRLYAEERYPILPEYLQCVKELYRGGLEPINFQTAADQARELINSWVESQTNGIIRNVLQPSSVDSQTAMVLVNAIVFKGLWEKAFKDEDTQAMPFRVTEQESKPVQMMYQIGLFRVASMASEKMKILELPFASGTMSMLVLLPDEVSGLEQLESIINFEKLTEWTSSNVMEERKIKVYLPRMKMEEKYNLTSVLMAMGITDVFSSSANLSGISSAESLKISQAVHAAHAEINEAGREVVGSAEAGVDAASVSEEFRADHPFLFCIKHIATNAVLFFGRCVSP
C. albicans 2ME extract; conjugate s.c.
  ELISA titer against 2ME extract: 320
C. albicans 2ME extract
  Class of the antibody response against 2ME extract: primarily IgM
MAb B6.1 [4]
  Reactivity with MAb B6.1 by ELISA: reacted
MAb S10
  Reactivity with MAb S10 by ELISA: not substantially
